Data reported in patent publication US9828344B2, “Inhibitors of the notch signaling pathway and secretion for use in medicine” (Leibniz-Institut für Altersforschung Fritz-Lipmann-Institut …, priority 2012, dated 2017).
Where two headings read alike, the source gives them in different places.

What was measured:
BIP and ATF6 [1] = tested on: BIP and ATF6
GBF1 = target: T1, GBF1 (Homo sapiens, UniProt Q92538); experiment: GBF1-GFP distribution in transfected HeLa cells; format: cell-based; conditions: FLI-06 10 μM, BFA 10 μg/ml, GCA 10 μM, 10 h
T1 construct: expressed in transfected cells; host or cells: HeLa (transient)
T1 sequence (Q92538 whole entry, species assumed): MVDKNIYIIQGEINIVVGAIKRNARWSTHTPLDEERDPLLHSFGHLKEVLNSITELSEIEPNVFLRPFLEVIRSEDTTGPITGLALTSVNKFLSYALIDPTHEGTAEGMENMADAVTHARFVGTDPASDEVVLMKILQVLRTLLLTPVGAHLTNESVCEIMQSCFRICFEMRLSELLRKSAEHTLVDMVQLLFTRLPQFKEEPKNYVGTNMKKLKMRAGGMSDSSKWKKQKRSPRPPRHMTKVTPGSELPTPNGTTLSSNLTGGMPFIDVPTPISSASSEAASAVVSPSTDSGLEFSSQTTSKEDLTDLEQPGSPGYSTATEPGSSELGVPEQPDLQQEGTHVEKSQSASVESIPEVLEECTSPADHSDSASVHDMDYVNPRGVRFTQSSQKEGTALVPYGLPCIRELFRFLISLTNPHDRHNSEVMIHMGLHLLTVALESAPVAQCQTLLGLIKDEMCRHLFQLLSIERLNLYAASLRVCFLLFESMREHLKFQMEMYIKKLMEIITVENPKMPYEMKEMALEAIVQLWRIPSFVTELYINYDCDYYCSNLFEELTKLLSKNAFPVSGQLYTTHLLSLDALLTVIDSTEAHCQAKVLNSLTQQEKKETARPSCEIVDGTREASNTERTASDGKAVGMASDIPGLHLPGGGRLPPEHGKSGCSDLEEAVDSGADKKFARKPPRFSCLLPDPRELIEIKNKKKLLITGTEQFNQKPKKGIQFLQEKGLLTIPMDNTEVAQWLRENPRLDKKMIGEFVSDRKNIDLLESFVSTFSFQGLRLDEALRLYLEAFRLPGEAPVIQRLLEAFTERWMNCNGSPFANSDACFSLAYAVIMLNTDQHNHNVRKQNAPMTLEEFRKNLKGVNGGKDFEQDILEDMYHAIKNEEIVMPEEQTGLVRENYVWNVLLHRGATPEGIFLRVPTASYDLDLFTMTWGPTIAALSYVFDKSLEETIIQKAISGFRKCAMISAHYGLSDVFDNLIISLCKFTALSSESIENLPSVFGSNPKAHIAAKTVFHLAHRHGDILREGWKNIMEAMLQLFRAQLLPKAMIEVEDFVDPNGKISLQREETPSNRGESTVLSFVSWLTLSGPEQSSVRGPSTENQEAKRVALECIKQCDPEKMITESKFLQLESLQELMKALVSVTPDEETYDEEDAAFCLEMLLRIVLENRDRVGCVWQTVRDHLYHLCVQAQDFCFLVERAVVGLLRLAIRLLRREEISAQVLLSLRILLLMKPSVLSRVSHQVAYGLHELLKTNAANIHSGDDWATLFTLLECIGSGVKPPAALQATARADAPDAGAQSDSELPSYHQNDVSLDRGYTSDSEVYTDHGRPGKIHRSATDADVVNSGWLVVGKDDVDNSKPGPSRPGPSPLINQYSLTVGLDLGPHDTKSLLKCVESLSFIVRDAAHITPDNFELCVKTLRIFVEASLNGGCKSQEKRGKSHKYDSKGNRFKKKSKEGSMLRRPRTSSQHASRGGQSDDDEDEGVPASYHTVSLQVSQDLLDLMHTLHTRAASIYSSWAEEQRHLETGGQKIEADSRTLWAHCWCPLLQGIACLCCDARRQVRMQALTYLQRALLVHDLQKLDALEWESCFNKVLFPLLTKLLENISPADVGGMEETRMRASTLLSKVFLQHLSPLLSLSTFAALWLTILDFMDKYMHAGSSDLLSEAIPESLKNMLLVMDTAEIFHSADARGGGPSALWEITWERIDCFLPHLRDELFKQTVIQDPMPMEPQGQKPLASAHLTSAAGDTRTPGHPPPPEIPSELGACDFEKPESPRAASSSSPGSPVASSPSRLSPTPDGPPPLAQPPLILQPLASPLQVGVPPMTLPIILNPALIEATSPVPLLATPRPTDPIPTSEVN

endocytosis = experiment: Transferrin uptake assay; format: cell-based
Procedure: FIG. 13: FLI-06 causes dispersal of early Golgi and TGN, but no tubulation of endosomes. Hela cells were incubated with DMSO or 10 iM FLI-06 or 1 ig/ml BFA for 18 h, fixed, stained with antibodies as indicated and imaged by fluorescence microscopy. Endosomes were visualized by adding Alexa555-labelled transferrin on ice and chasing for 15 min at 37° C. in the presence of indicated compounds. Arrows indicated tubulating endosomes, scalebar 10 im.
For the transferrin uptake assay cells were starved in serum free medium for 1 h at 37° C. Cells were then transferred on ice and medium was exchanged to serum free medium supplemented with 25 μg/ml AlexaFluor555-Transferrin conjugate (Molecular Probes) and test compounds. After 15 min on ice cells were incubated with pre-warmed serum-supplemented medium containing test compounds and incubated at 37° C.

YFP-GPI = experiment: Surface transport of YFP-GPI in HeLa cells; format: cell-based; conditions: 18 h; 1 ig/ml BFA or 10 iM FLI-06
BIP and ATF6 [2] = experiment: ER stress: BIP Western blot and ATF6 luciferase assay in HeLa cells; conditions: 6 or 24 h
Golgi apparatus = experiment: Immunofluorescence of Golgi and early secretory pathway markers in HeLa cells; format: cell-based
KlothoS = experiment: Secretion of KlothoS from transfected HeLa cells; format: cell-based; conditions: 18 h
Procedure: Thereafter cells were fixed and analyzed by immunofluorescence microscopy. […] After incubating with compounds for 18 h media were collected, cells lysed and both analyzed by Western Blotting using Klotho antibody. As loading control membranes were probed for actin. […] […] Tunicamycin (Tun) and 5 mM DTT were used as positive controls. […] Shown is the average of three independent experiments, error bars indicate standard deviation.

microtubuli or actin = experiment: Microtubule and actin integrity in HeLa cells; format: cell-based; conditions: 4 h
COPII vesicles = experiment: In vitro COPII budding assay with permeabilized cells; format: biochemical; conditions: no FLI-06 pretreatment of cells
NotchΔE-EGFP = experiment: cells; format: cell-based
From the text: To identify novel regulatory factors involved in Notch trafficking/processing an image-based high content screen was set up. […] NotchΔE-EGFP is a direct substrate for γ-secretase at the PM, and under physiological conditions is proteolytically processed to NICD-EGFP that translocates into the nucleus (for scheme see FIG. 1b), resulting in a strong nuclear EGFP-staining in steady state^15 (FIG. 1d). […] Importantly, changes in subcellular localization of the reporter are amenable to quantitation by automated microscopy^15. Accordingly, reporter fluorescence was determined in the nucleus (nuc) and in a ring around the nucleus (enuc), and the ratio enuc/nuc was evaluated (schematized in FIG. 1c). Thereafter, the assay design was functionally validated. […] The assay also reliably detected trafficking defects in the secretory pathway. […] Taken together, the assay was validated for reliably detecting concentration and time dependent changes in trafficking and processing of the Notch reporter.
Cells were seeded in 96-well plates at a density of 5000 cells/well in 100 μl medium. The next day, 100 μl medium containing the respective test compounds was added. Cells were incubated for 16 h, fixed and processed for automated microscopy. For the putative gamma-secretase inhibitors the enuc intensity was divided by the DAPT control and for the trafficking inhibitors normalized percentage inhibition against DAPT/DMSO controls of log 2 transformed nuc/enuc ratios were calculated. Relative activity values were read into “R” (http://www.r-project.org/) and EC50 estimates were calculated using four-parameter log-logistic fit with the package “drc”^51.
Images were acquired on an ArrayScan VTi automated microscope (ThermoFisher) and numerical data were extracted with the Compartmental Analysis BioApplication of the bundled software suite. Compound screening raw data were collected at the FMP and data transformation was performed according to standard procedures (ref 17 and supp. Refs 6-7).

ER = ER tubule-to-sheet live-cell imaging in COS cells (prlss-KDEL-mRFP); format: cell-based; conditions: 10 iM, 2 h
Procedure: FIG. 7: FLI-06 induces ER sheet formation. A) COS cells transfected with prlss-KDEL-mRFP were incubated with 10 μM FLI-06 for indicated times and imaged by live-cell microscopy. The inserts are magnifications of the boxed areas. B) Images from cells treated as in A) were scored for the percentage of cells that lost most of their ER-tubules. For each time point 40-60 cells were counted. Data represent mean percentages, error bars SEM, n=3 independent experiments.
FIG. 16: Only ER exit inhibitors convert ER tubules to sheets. COS cells plated on LabTek chambered coverslips were transiently transfected with the ER-marker prlss-KDEL-mRFP, incubated the next day for 2 h with 10 iM of indicated compounds and imaged by live-cell microscopy. […] FLI-06+CHX, cells were additionally incubated in 40 iM cycloheximide. Nife, nifedipine; nimo, nimodipine. Numbers refer to numbering in FIG. 5a.
We noted a morphological change of the ER upon FLI-06 incubation that was difficult to capture in fixed cells. Live-cell imaging was therefore performed in COS cells transfected with the ER marker prlss-KDEL-mRFP (supp. Ref 3) and FLI-06 was added for 120 min (FIG. 7a). After 120 min almost all cells had no detectable ER-tubules anymore and instead were filled with large sheet-like structures. […] To test whether the morphological change is related to the inhibition of ER exit, next our set of FLI-06 derivatives was tested. […] Rather, the ER-sheets are indicative for structural changes, maybe initiated within ERES, that inhibit ER exit.

## Fc1cc(F)c2c(c1)[C@H]1C=CC[C@H]1C(c1cccnc1)N2 (mixture of isomers) [GCA, Golgicide A, reference compound]
BIP and ATF6 [1]
  ER-stress (BIP up-regulation, ATF6 luciferase): caused ER-stress
GBF1
  distribution of GBF1-GFP: recruited to the fragmented Golgi

## C[C@H]1CCC/C=C/[C@@H]2C[C@H](O)C[C@H]2[C@H](O)/C=C/C(=O)O1 [BFA, Brefeldin A, reference compound]
endocytosis
  endocytosis of transferrin: did not affect endocytosis
YFP-GPI
  surface transport of YFP-GPI: inhibit surface transport of YFP-GPI
BIP and ATF6 [2]
  ER-stress (BIP up-regulation, ATF6 luciferase): caused ER-stress
GBF1
  distribution of GBF1-GFP: recruited to the fragmented Golgi
Golgi apparatus; 1 ig/ml BFA or 10 iM FLI-06
  time to loss of Golgi-like juxtanuclear βCOP staining: 10 min
Golgi apparatus; 10 iM FLI-06 or 1 ig/ml BFA, 18 h
  distribution of GM130 and TGN46: dispersal of the cis-Golgi marker GM130 and of the trans-Golgi network (TGN) marker TGN46
Golgi apparatus; 4 h at 40° C. with cycloheximide
  hyperglycosylation of VSVG-EGFP: led to hyperglycosylation in the ER
KlothoS
  secretion of KlothoS: inhibit secretion of KlothoS

## C=C1[C@@H](C)[C@H]2[C@H](Cc3ccccc3)NC(=O)[C@]23[C@H](OC(C)=O)/C=C/[C@@](C)(O)C(=O)[C@@H](C)C/C=C/[C@H]3[C@@H]1O [Cytochalasin D, cytochalasin D, reference compound]
Microtubuli or actin; 2 iM cytochalasin D or 10 iM FLI-06
  actin polymerization and distribution: depolymerized f-actin

## CC1=C(C(=O)OC2CCCCC2)C(c2ccccc2)C2=C(CC(C)(C)CC2=O)N1 (stereo not shown) [FLI-25]
COPII vesicles
  COPII budding reaction, compound added directly to the assay: neither 10 nor 100 μM of FLI-25 had an effect
NotchΔE-EGFP; SAR and prior-art comparison, FIG. 5a/5b
  activity in NotchΔE-EGFP cells (enuc/nuc ratios): inactive

## CCCCCOC(=O)C1=C(C)NC2=C(C(=O)CC(C)(C)C2)C1c1ccc([N+](=O)[O-])cc1 (stereo not shown) [FLI-27]
ER
  ER tubule-to-sheets phenotype: elicited the tubule-to-sheets phenotype

## CC1=C(C(=O)OC2CCCCCC2)C(c2ccc([N+](=O)[O-])cc2)C2=C(CC(C)(C)CC2=O)N1 (stereo not shown) [FLI-28]
ER
  ER tubule-to-sheets phenotype: elicited the tubule-to-sheets phenotype
NotchΔE-EGFP; enuc/nuc ratios in NotchΔE-EGFP cells
  activity relative to compound 1 (FLI-06): twice as active as compound 1

## O=S(=O)(NCCNC/C=C/c1ccc(Br)cc1)c1cccc2cnccc12 [H89, reference compound]
COPII vesicles
  COPII budding reaction, compound added directly to the assay: completely blocked formation of COPII vesicles

## CC1=C(C(=O)OC2CCCCC2)C(c2ccccc2)C2=C(CC(C)(C)CC2=O)N1 (stereo not shown) [compound 5]
ER
  ER tubule-to-sheets phenotype: elicited the tubule-to-sheets phenotype

## COC(=O)Nc1nc2ccc(C(=O)c3cccs3)cc2[nH]1 [nocodazole, reference compound]
Microtubuli or actin; 1.5 ig/ml nocodazole or 10 iM FLI-06
  microtubule network: almost completely disintegrated
